Reference: patent US20250228832A1, “METHODS FOR TREATING DISORDERS AMELIORATED BY MUSCARINIC RECEPTOR ACTIVATION” (KARUNA THERAPEUTICS, INC., priority 2022, published 2025)
Like-named read-outs stand apart in the source and are kept apart here.

Columns and labels:
[1] = target: T1, human M1 receptor (Homo sapiens, UniProt P11229); experiment: HTRF IP-One curve shift assay, M1; format: cell-based
T1 construct: expressed in transfected cells
T1 sequence (P11229 1-460): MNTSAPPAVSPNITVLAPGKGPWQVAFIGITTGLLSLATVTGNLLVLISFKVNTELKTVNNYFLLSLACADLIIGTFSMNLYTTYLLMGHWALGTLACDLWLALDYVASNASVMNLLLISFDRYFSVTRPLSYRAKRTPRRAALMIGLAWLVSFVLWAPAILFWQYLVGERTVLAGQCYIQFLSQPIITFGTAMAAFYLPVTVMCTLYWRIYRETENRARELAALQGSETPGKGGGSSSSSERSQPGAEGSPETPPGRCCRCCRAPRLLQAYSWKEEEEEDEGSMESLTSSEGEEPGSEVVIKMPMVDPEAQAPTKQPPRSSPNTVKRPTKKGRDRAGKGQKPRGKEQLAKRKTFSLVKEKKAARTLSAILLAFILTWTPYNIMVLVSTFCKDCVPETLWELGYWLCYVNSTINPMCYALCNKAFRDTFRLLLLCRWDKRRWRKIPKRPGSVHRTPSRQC
Description: HTRF IP-One assays were performed using frozen cell aliquots prepared from CHO-K1 cell lines stably expressing human M1, M3, or M5 receptors. Cells were frozen following typical cell freezing protocols. […] Dissociated cells were quenched in full media and collected by centrifugation at 290×g for 5 min. […] 1 mL aliquots of cells were dispensed into cryovial tubes and frozen in a controlled rate cryo-freezer container at −80° C. Cells were stored at −80° C. (or in liquid nitrogen if stored for at least six months) until the day of the assay.
On the day before the assay, frozen cells were rapidly thawed in a 37° C. water bath, brought up in 20 mL of full media, and collected via centrifugation at 290×g for 5 min. […] Next, […] of cells (10,000 cells/well) were dispensed into 384-well coming plates in triplicate. Cells were incubated overnight in a 37° C., 5% CO2 cell incubator.
Then, 2 μL of test compounds were added to the cells and incubated for 10 min at 37° C. in a 5% CO2 cell incubator. Next, 2 μL of diluted agonists serially diluted in assay buffer at 7× final assay concentration was added to assay plates. Finally, assay plates were incubated for two hours at 37° C. in a 5% CO2 cell incubator.
Six μL of IP-1 detection reagents (IP-One Gq HTRF kit, Cisbio Cat #62IPAPEJ) were dispensed to the cells. First, the plates were incubated for two hours at room temperature (IP-One detection reagents were made according to Cisbio protocol). Then, plates were read on an Envision plate reader following the Cisbio guidelines.
Raw data for all assays was transmitted directly from plate readers into the Beacon database for processing. All assay plates contained positive and negative control wells for data normalization and scaling. […] All control wells contained DMSO at a final assay concentration that matched the test compound wells.
Counts from the standard curve wells were used to generate a sigmoidal standard curve, which was used to transform the raw counts from each well on the plate (scaling control wells and compound wells) into a pmol/well IP1 value.

[2] = 25-75 mg TID, 75-225 mg TDD; cited from earlier work
[3] = 26-week study of Alzheimer's disease; cited from earlier work
[4] = Emraclidine concentration 41.2 nM, read-out: Emax
[5] = Emraclidine concentration 123 nM, read-out: Emax
[6] = Emraclidine concentration 370 nM
[7] = Emraclidine concentration 1110 nM, read-out: Emax
[8] = Emraclidine concentration 3330 nM, read-out: Emax
[9] = MK-4710 concentration 41.2 nM, read-out: Emax
[10] = MK-4710 concentration 123 nM, read-out: Emax
[11] = MK-4710 concentration 1110 nM, read-out: Emax
[12] = MK-4710 concentration 3330 nM, read-out: Emax

Row | EC50 ([1]; Emraclidine concentration 0 nM) [nM] | Emax ([1]; Emraclidine concentration 0 nM) [%] | Emax [1, 4] [%] | Emax [1, 5] [%] | Emax at […] [1, 6] [%] | Emax [1, 7] [%] | Emax [1, 8] [%] | Emax at […] ([1]; Emraclidine concentration […]) [%] | α (cooperativity, affinity shift) ([1]; M4 PAM Emraclidine) | β (cooperativity, efficacy shift) ([1]; M4 PAM Emraclidine) | τ (agonist pharmacology) ([1]; M4 PAM Emraclidine) | α (cooperativity, affinity shift) ([1]; M4 PAM MK-4710) | β (cooperativity, efficacy shift) ([1]; M4 PAM MK-4710) | τ (agonist pharmacology) ([1]; M4 PAM MK-4710) | EC50 ([1]; MK-4710 concentration 0 nM) [nM] | Emax [1, 9] [%] | Emax [1, 10] [%] | Emax at […] ([1]; MK-4710 concentration 370 nM) [%] | Emax [1, 11] [%] | Emax [1, 12] [%] | Compound | further results
1 | 10.1 | 77.8 | 83.1 | 85.4 | 88.4 | 85.2 | 87.8 | 83.9 | 3.2 | 0.8 | 0.0 | 4.1 | 0.6 | 0.0 | 8.7 | 82.7 | 79.9 | 78.3 | 76.8 | 76.7 | CCCCCCCOc1nsnc1C1=CCCCN1C [KTX-593, 3-(heptyloxy)-4-(1-methyl-1,4,5,6-tetrahydropyridin-2-yl)-1,2,5-thiadiazole] | Emax ([1]; MK-4710 concentration 0 nM): 83.7%; EC50 ([1]; MK-4710 concentration 41.2 nM): 7.6 nM; EC50 ([1]; MK-4710 concentration 123 nM): 8.3 nM; EC50 ([1]; MK-4710 concentration 370 nM): 6.5 nM; EC50 ([1]; MK-4710 concentration 1110 nM): 6.8 nM; EC50 ([1]; MK-4710 concentration 3330 nM): 5.3 nM; EC50 ([1]; MK-4710 concentration […]): 8.8 nM; Emax at […] ([1]; MK-4710 concentration […]): 77.6%
2 |  |  |  |  |  |  |  |  |  |  |  |  |  |  |  |  |  |  |  |  | CCCCCCOc1nsnc1C1=CCCN(C)C1 [xanomeline, reference compound] | positive (psychosis), negative, and cognitive symptoms of schizophrenia [2]: improved; dropout rate [3]: 56%
3 | 1190 | 73.6 | 81.4 | 90.4 | 95.1 | 100 | 103 | 73.2 | 1.0 | 1.2 | 0.0 | 3.0 | 0.5 | 0.0 | 1750 | 102 | 97.1 | 92.3 | 83.6 | 69.9 | CC1OC2(CS1)CN1CCC2CC1 (stereo not shown) [cevimeline, Cevimeline, reference compound] | Emax ([1]; MK-4710 concentration 0 nM): 86.1%; Emax at […] ([1]; MK-4710 concentration […]): 88.8%
4 | 7 | 61.6 | 65.6 | 66.5 | 71.3 | 72.8 | 79 | 61 | 11.3 | 2.2 | 0.0 | 3.5 | 0.6 | 0.0 | 8.4 | 81.5 | 79.6 | 80.9 | 86.1 | 85.8 | CCCCCOc1nsnc1C1=CCCCN1C [KTX-517, 3-(1-methyl-1,4,5,6-tetrahydropyridin-2-yl)-4-(pentyloxy)-1,2,5-thiadiazole] | Emax at […] ([1]; MK-4710 concentration […]): 77.8%
